Measured values published in patent publication US5981517A, “Androstene derivatives” (priority 1997, dated 1999).

Tests used:
skin = experiment: Skin weight test, 10 days of topical treatment in the rat; type: in vivo, Male Sprague-Dawley rats; conditions: for Wet skin weight, Treated, Decrease / Wet skin weight, Untreated, Decrease: percent decrease of the control; for Wet skin weight, Treated, Decrease: treated flank; for Wet skin weight, Untreated, Decrease: untreated flank; for Body wt. gain / Thymus wt. / Wet skin weight, Treated / Wet skin weight, Untreated: topical 0.1%, 10 days; for Body wt. gain / Thymus wt.: daily dose 30 μg; for Thymus wt. / Wet skin weight, Treated / Wet skin weight, Untreated: mean ± S.E.; for Wet skin weight, Treated: treated left flank; for Wet skin weight, Treated / Wet skin weight, Untreated: 30 μg daily; for Wet skin weight, Untreated: untreated right flank
Protocol: Male Sprague-Dawley rats, weighing about 210 g, were lightly anesthetized with ether, shaved and marked in three areas on each flank with intradermally injected blue ink. […] Treated control animals received daily topical administration of the vehicle (DMF) alone. Solvent and test compound solutions (10 μL) were applied once daily for 10 consecutive days, with […] necessary. On the eleventh day, the animals were sacrificed, their skins were removed and 16 mm diameter plugs were punched out from each area. The plugs were scraped carefully to remove subcutaneous fat and muscle, then they were blotted on filter paper and weighed. Skin atrophy is a known side effect associated with topically applied anti-inflammatory steroids.

thymi = system: thymi; set-up: species or system male Sprague-Dawley rats; conditions: rat, in vivo, sc
Protocol: Several further studies were undertaken to determine the effects of a selected compound of the invention and prior art steroids on thymi weights in rats when the drugs were systemically administered. In each of these studies, male Sprague-Dawley rats were used. The test compounds were suspended in 0.5% CMC (carboxymethylcellulose) and injected subcutaneously once daily for three days. On the fifth day (48 hours following the last treatment), the animals were sacrificed and the thymi weights were recorded. Body weight gains were measured 24 hours after the last treatment. From the test results, the TED40 's (thymolytic effective doses, that is, doses required to achieve 40% inhibition of thymi weight) and relative potencies of a representative compound of the invention and reference steroids were calculated. […] It is evident that the higher the inhibition of thymus activity at a given dose, the more toxic the compound is.

granuloma / thymolysis = experiment: Comparison of local effect and systemic side-effects (therapeutic index); type: in vivo, rat; conditions: granuloma relative potency / thymolysis relative potency
Protocol: The test compound was dissolved in acetone and aliquots of varying concentrations were injected into cotton pellets. The pellets were dried and then one pellet was implanted beneath the skin of each test rat. Six days later, the animals were sacrificed and the granulation tissue (granuloma) which formed in and around the implanted pellet was removed, dried and weighed. In addition, the thymi and adrenals were removed and weighed.
Several further studies were undertaken to determine the effects of a selected compound of the invention and prior art steroids on thymi weights in rats when the drugs were systemically administered. In each of these studies, male Sprague-Dawley rats were used. The test compounds were suspended in 0.5% CMC (carboxymethylcellulose) and injected subcutaneously once daily for three days. On the fifth day (48 hours following the last treatment), the animals were sacrificed and the thymi weights were recorded. Body weight gains were measured 24 hours after the last treatment.
The ED50 's calculated for the local cotton pellet granuloma assay and the TED40 's calculated on the basis of thymus inhibition testing as described above were used to arrive at relative potency and a therapeutic index for a representative species of the invention as compared to prior art steroids.

in vitro = in vitro ADME; conditions: rat, lung cytosol
Protocol: To determine that the compounds of the invention can be stable during the incubation period, the test compounds A, B, C, and D were investigated for their stabilities at the incubation conditions, which are room temperature and 2 hours, for receptor binding studies. The frozen cytosol which was made for the receptor binding study was thawed in a water bath and diluted with 1 part of incubation buffer (10 mM Tris/HCl, 10 mM sodium molybdate, and 2 mM 1,4-dithiothreitol) containing a 15 mM concentration of enzyme inhibitor, diisopropyl fluorophosphate. Portions (560 μL) of the diluted cytosol were added to centrifuge tubes containing 80 μL portions of blank incubation buffer instead of volume of tracer ([^3 H]triamcinolone acetonide) which would be used in the receptor binding study (RBS), 80 μL of solution of a Δ^1 -cortienic acid (0.1 mM) in buffer (the final concentration of Δ^1 -cortienic acid in the incubation medium was […]), and 80 μL of 100,000 nM of concentrations of test compounds in ethanol to give a final concentration of 10,000 nM. This mixture was kept at room temperature for 2 hours. Samples of 0.1 mL were taken at appropriate time intervals (0, 0.5, 1, 1.5, 2 hours) and were mixed with 0.2 mL of acetonitrile containing 5% DMSO. Each mixture was centrifuged and the supernatant were injected in the HPLC.
Male Sprague-Dawley rats, each weighing 150 to 200 g, were used 6 days after adrenalectomy. Rats were sacrificed by decapitation. Immediately after resection of the lungs, the tissue was frozen in ice. The cytosol was prepared using a slight modification of a previously described method (Dahlberg, 1984); After addition of 6 volumes of ice-cold incubation buffer (10 mM Tris/HCl, 10 mM sodium molybdate, and 2 mM 1,4-dithiothreitol), the tissue was homogenized with the Virtis 45 homogenizer at full speed, for 4 periods of 10 seconds with a 10-second cooling period between each step. The homogenate was centrifuged at 35,000 g for 1 hour at 4° C. in a Beckman ultracentrifuge L8-70M equipped with a T170 rotor. Portions (5 ml) of the cytosol were frozen in liquid nitrogen and stored at -80° C.

[1] = target: T1, rat lung glucocorticoid receptor (Rattus norvegicus, UniProt P06536); experiment: Receptor binding studies ([3H]triamcinolone acetonide displacement); conditions: further receptor binding studies (Table X); dexamethasone = 100; * mean ± SE of 3-5 results
T1 construct: Immediately after resection of the lungs, the tissue was frozen in ice; The cytosol was prepared; from tissue; host or cells: lung cytosol of adrenalectomized male Sprague-Dawley rats
T1 sequence (P06536 1-795): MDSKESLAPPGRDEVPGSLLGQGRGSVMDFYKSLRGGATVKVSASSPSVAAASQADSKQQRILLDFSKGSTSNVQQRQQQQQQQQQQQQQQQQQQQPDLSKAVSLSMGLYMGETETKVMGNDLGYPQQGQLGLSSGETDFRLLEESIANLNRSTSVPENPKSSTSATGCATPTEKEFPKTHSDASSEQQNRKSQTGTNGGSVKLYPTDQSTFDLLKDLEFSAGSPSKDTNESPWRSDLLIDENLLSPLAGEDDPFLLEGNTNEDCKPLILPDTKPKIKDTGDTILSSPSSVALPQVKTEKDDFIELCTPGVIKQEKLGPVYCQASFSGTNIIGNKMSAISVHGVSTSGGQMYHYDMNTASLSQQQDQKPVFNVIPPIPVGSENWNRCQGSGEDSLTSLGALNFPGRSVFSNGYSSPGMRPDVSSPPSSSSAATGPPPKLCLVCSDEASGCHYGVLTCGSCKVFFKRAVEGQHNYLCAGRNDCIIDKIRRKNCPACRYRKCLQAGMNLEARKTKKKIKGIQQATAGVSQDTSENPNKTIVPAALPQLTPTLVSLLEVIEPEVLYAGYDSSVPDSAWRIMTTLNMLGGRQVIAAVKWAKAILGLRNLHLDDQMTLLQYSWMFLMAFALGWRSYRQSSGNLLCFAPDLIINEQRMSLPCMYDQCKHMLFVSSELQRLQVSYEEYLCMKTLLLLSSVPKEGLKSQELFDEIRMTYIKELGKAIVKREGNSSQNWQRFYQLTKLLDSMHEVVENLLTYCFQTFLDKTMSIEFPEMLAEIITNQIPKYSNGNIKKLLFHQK
Protocol: Male Sprague-Dawley rats, each weighing 150 to 200 g, were used 6 days after adrenalectomy. Rats were sacrificed by decapitation. Immediately after resection of the lungs, the tissue was frozen in ice. […] Portions (5 ml) of the cytosol were frozen in liquid nitrogen and stored at -80° C.
The cytosol was thawed in a water bath and diluted with 1 part of incubation buffer containing a 15 mM concentration of diisopropyl fluorophosphate. […] After a 2 hour incubation period at room temperature (24° C.), the unbound steroid was removed by addition of a 2% suspension of activated charcoal in incubation buffer (400 μL). The mixture was incubated for 5 minutes at room temperature and then was centrifuged at about 10,000 g for 3 minutes in the microcentrifuge. The radioactivity (cpm) in the supernatant (400 μL) was determined by liquid scintillation counting.
The data is fitted to the following logistic function:
B=T-T * C^N /(C^N +IC50^N)+NS,
where B=CPM in the presence of competitor, T=CPM in the absence of competitor, C=competitor concentration, N=Hill slope factor, and NS=cpm under non-specific binding conditions.
For the representative compound of the invention B, receptor binding affinity was investigated with and without Δ^1 -cortienic acid in the incubation solution to study the effect of Δ^1 -cortienic acid on the receptor binding.
Further studies to evaluate the relative receptor binding affinities of compounds of the invention, other compounds of formula (VII) hereinabove and well-known anti-inflammatory steroids were undertaken, using the methods described in the RECEPTOR BINDING STUDIES set forth above. […] For comparison purposes, the following compounds having formula (VII) above were also tested: […]

[2] = system: forearms of a human volunteer; experiment: Further human vasoconstriction testing, Method 1; type: in vivo
Protocol: The mixtures, in 50 μL amounts, were applied to circular patches (8 mm diameter). After evaporation of ethanol, the patches were applied to the forearms of a human volunteer, and covered with a water impervious film for 3 hr. The intensity of vasoconstriction (scale 0-4) was judged at various time intervals after removal of the patches. The grading scale was as follows: 0, normal skin; 1, slight pallor of indistinct outline; 2, pallor with at least two corners outlined; 3, even pallor with a clear outline of the application sites; 4, very intense pallor. The skin tests (2-4 tests on each compound) were performed on the same person.

[3] = 24 Hours, 1 hour re-occlusion at 20-21 hours, 0.01 mM
[4] = 24 Hours, 1 hour re-occlusion at 20-21 hours, 0.05 mM
[5] = 24 Hours, 1 hour re-occlusion at 20-21 hours, 0.1 mM
[6] = 24 Hours, 1 hour re-occlusion at 20-21 hours, 0.5 mM

| SMILES | Wet skin weight, Treated, Decrease (skin) [%] | Wet skin weight, Untreated, Decrease (skin) [%] | remaining at 2 h (in vitro) [%] | RBA [1] | Vasoconstriction activity ([2]; 3 Hours, 0.01 mM) | Vasoconstriction activity ([2]; 3 Hours, 0.05 mM) | Vasoconstriction activity ([2]; 3 Hours, 0.1 mM) | Vasoconstriction activity ([2]; 3 Hours, 0.5 mM) | Vasoconstriction activity ([2]; 3 Hours, 1 mM) | Vasoconstriction activity ([2]; 3 Hours, 5 mM) | Vasoconstriction activity ([2]; 20 Hours, 0.01 mM) | Vasoconstriction activity ([2]; 20 Hours, 0.05 mM) | Vasoconstriction activity ([2]; 20 Hours, 0.1 mM) | Vasoconstriction activity ([2]; 20 Hours, 0.5 mM) | Vasoconstriction activity ([2]; 20 Hours, 1 mM) | Vasoconstriction activity ([2]; 20 Hours, 5 mM) | Vasoconstriction activity [2, 3] | Vasoconstriction activity [2, 4] | Vasoconstriction activity [2, 5] | Vasoconstriction activity [2, 6] | also measured |
| --- | --- | --- | --- | --- | --- | --- | --- | --- | --- | --- | --- | --- | --- | --- | --- | --- | --- | --- | --- | --- | --- |
| CCC(=O)O[C@]1(C(=O)CCl)[C@@H](C)C[C@H]2[C@@H]3CCC4=CC(=O)C=C[C@]4(C)[C@@]3(F)[C@@H](O)C[C@@]21C [Clobetasol 17-propionate] | 21.2 | 19.2 |  |  |  |  |  |  |  |  |  |  |  |  |  |  |  |  |  |  | Body wt. gain (skin): 24.2 ± 2.3 g; Thymus wt. (skin): 190 ± 14 mg; Wet skin weight, Treated (skin): 78.2 mg; Wet skin weight, Untreated (skin): 67.6 ± 6.2 mg; Thymolysis, Relative Potency at ED40 Level (b) (thymi): 1927; Therapeutic Index (a/b) (granuloma / thymolysis): 1.54 |
| CCOC(=O)[C@@]1(OC(=O)CC)CC[C@H]2[C@@H]3CCC4=CC(=O)C=C[C@]4(C)[C@H]3[C@@H](O)C[C@@]21C [Compound P, reference compound] |  |  | > 90 | 38 | 0 | 0 | 0 | 1 | 2 | 3 | 0 | 0 | 0 | 0 | 1 | 1 | 0 | 0 | 1 | 2 |  |
| CCOC(=O)[C@@]1(OC(=O)CCl)CC[C@H]2[C@@H]3CCC4=CC(=O)C=C[C@]4(C)[C@H]3[C@@H](O)C[C@@]21C [Compound R, ethyl 17α-chloroacetoxy-11β-hydroxyandrosta-1,4-dien-3-one-17β-carboxylate] |  |  | 30 | 22 | 0 | 0 | 0 | 1 | 1 | 1 | 0 | 0 | 0 | 0 | 0 | 0 | 0 | 0 | 0 | 0 |  |
| CCCC(=O)O[C@]1(C(=O)CO)CC[C@H]2[C@@H]3CCC4=CC(=O)CC[C@]4(C)[C@H]3[C@@H](O)C[C@@]21C [Hydrocortisone 17-butyrate] | 13.1 | 14.0 |  |  |  |  |  |  |  |  |  |  |  |  |  |  |  |  |  |  | Body wt. gain (skin): 45.7 ± 10.6 g; Thymus wt. (skin): 540 ± 61 mg; Wet skin weight, Treated (skin): 86.3 ± 1.5 mg; Wet skin weight, Untreated (skin): 72.0 ± 4.7 mg; Thymolysis, Relative Potency at ED40 Level (b) (thymi): 57; Therapeutic Index (a/b) (granuloma / thymolysis): 1.23 |
| CCOC(=O)[C@@]1(OC(=O)C(C)Cl)CC[C@H]2[C@@H]3CCC4=CC(=O)C=C[C@]4(C)[C@H]3[C@@H](O)C[C@@]21C (stereo partly drawn) [Q, ethyl 17α-(α-chloro)propionyloxy-11β-hydroxyandrosta-1,4-dien-3-one-17β-carboxylate] |  |  | > 90 | 88 | 0 | 0 | 0 | 1 | 1 | 3 | 0 | 0 | 0 | 1 | 1 | 1 | 0 | 0 | 1 | 2 |  |
